From patent US20080063714A1, “Compositions for Encapsulation and Controlled Release” (priority 2003, published 2008)

What was measured:
[1] = Penicillin G degradation in acidic solution pH 2.0; type: physicochemical; settings: pH 2.0, 2 hours, 37° C.
Description: For example, particles of the present invention can protect penicillin G from degradation in acidic environments. When exposed to an acidic environment, such as a solution with pH less than about 5.0, penicillin G is rapidly degraded. […] Penicillin G may be encapsulated in particles of the present invention, such as those comprising triazine derivatives of formula I, and protected from degradation in acidic environment. For example, penicillin G encapsulated in crosslinked particles comprising 4-{[4-(4-carboxyanilino)-6-(3-methyl-1H-imidazol-3-ium-1-yl)-1,3,5-triazin-2-yl]amino}benzoate and a mixture of magnesium and aluminum cations may be exposed to an acidic solution with a pH of 2.0 for 2 hours at 37° C.

adenosine deaminase = target: T1, adenosine deaminase (Bos taurus, UniProt P56658); assay: Adenosine deaminase activity (inosine by HPLC) after exposure to acid or water; type: biochemical; settings: after 2 hours in 0.1% trifluoroacetic acid pH 2.0 at room temperature
T1 construct: purchased Sigma lot no; 70H8145 (catalogue number not given)
T1 sequence (P56658 2-363 limits assumed): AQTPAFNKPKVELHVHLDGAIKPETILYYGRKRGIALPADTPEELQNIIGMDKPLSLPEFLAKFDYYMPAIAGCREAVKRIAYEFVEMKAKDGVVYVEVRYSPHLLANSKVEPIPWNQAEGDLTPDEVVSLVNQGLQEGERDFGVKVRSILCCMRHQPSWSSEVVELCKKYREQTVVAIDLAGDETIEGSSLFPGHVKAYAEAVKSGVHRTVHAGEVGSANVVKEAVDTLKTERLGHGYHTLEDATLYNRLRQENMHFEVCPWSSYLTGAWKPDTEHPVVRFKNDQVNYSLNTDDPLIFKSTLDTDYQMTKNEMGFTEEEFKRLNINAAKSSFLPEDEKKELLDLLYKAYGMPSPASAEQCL
Procedure: One portion of the beads was added to a vial containing 20 ml of a 0.1% trifluoroacetic acid in water (pH of 2.0) test solution. The beads were exposed to the acidic test solution at room temperature for two hours. The acidic test solution was then decanted and discarded. The beads were rinsed with 10 mL deionized water. The water was then decanted and discarded. Phosphate buffer (20 mL, pH of 7.0 with 0.15 M NaCl) was added to the vial with the remaining beads and the vial was agitated on a wrist action shaker for one hour to dissolve the beads. The resulting solution was filtered through a 0.22 μm poly(vinylidene fluoride) filter.
The inosine peak area was 733 units.
The other portion of the beads was added to a vial containing 20 mL of deionized water (pH approx. 7.5). The beads were exposed to the water solution for two hours. The water was then decanted and discarded. Phosphate buffer (20 mL, pH of 7.0 with 0.15 M NaCl) was added to the vial with the remaining beads and the vial was agitated on a wrist action shaker for one hour to dissolve the beads. […] Adenosine deaminase activity was determined as described above. […]
Adenosine deaminase was added to a 20 mL of 0.1% trifluoroacetic acid in water (pH of 2.0) solution to prepare an acidic test solution with a concentration of approximately 110 μg/mL adenosine deaminase. […] Adenosine deaminase activity was determined as described above. […]

In the case of `CC1(C)S[C@@H]2[C@H](NC(=O)Cc3ccccc3)C(=O)N2[C@H]1C(=O)O` [Penicillin G], the “Degradation of penicillin G in acidic solution” value [1] is reported as “almost completely degraded”.

B1: Comparative Example: Unencapsulated adenosine deaminase, approximately 110 μg/mL in 0.1% trifluoroacetic acid in water (pH 2.0) (protein, UniProt P56658 2-363, looked up)
Adenosine deaminase: T1 sequence (P56658 2-363 limits assumed)
For B1, the “Adenosine deaminase activity, inosine peak area” value (adenosine deaminase) was 5 units.
